Test results published in US12145920B2, “Lanthionine c-like protein 2 ligands, cells prepared therewith, and therapies using same” (NImmune Biopharma, Inc., priority 2019, dated 2024).
pKd: −log10 of the molar value.

Legend:
LANCL2 protein = target: T1, LANCL2 protein (Homo sapiens, UniProt Q9NS86); test: Surface plasmon resonance binding to LANCL2 (Biacore T200); conditions: SPR, immobilized LANCL2, analyte 0-40 μM
T1 construct: made in house; host or cells: Pichia pastoris
T1 sequence (Q9NS86 1-450): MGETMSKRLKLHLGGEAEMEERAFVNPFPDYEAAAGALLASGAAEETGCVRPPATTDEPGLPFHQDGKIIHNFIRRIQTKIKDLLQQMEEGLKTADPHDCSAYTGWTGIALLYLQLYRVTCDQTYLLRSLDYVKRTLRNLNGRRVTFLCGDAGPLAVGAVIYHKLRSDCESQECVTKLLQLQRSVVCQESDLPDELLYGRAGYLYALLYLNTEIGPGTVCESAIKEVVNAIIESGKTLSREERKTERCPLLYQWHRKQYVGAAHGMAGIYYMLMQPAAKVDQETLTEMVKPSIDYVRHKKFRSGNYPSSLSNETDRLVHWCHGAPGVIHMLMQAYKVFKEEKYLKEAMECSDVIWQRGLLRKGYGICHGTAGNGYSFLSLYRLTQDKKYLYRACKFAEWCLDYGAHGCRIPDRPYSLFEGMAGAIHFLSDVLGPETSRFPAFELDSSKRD
Protocol: LANCL2 production and purification. LANCL2 was cloned into E. coli, amplified and transfected in Pichia pastoris. P. pastoris was plated onto adenine selective media. Stable transfected colonies were selected and grown within YPD broth at 30° C. for 24 hours, 240 RPM shaking. Starter culture was used to inoculate base media (1% yeast extract, 2% peptone, 1% sorbitol, 2% yeast nitrogen base) containing biotin and buffered with potassium phosphate. Inoculated base media was incubated for 48 hours at 30° C., 240 RPM. P. pastoris was then pelleted by centrifugation and resuspended in expression media (1% sorbitol, 2% yeast nitrogen base) containing biotin and buffered with potassium phosphate. Culture was induced daily for protein production through addition of methanol and incubated for a total of 4 days at 28° C., 240 RPM. After incubation, cells were pelleted by centrifugation and lysed by sonication. Recombinant LANCL2 protein was purified by fast protein liquid chromatography (AktaPrime) using immobilized metal affinity chromatography. Fractions of protein were eluted in 1 mL aliquots and evaluated for LANCL2 content.
Surface plasmon resonance. A Biacore T200 was used to evaluate binding to the LANCL2 protein. Protein was immobilized onto the CMS sensor chip. […] Based on the immobilized response values, theoretical Rmax values were calculated. […]

[1] = tested on: Non-obese diabetic (NOD) ShiLt mice; test: NOD mouse model of T1D; type: in vivo
Protocol: NOD model. Non-obese diabetic (NOD) ShiLt mice were used in this study. NOD mice have numerous genetic mutations that enable the spontaneous onset of hyperglycemia and pancreatic pathologies associated with T1D. Mice entered into the experiment at 9 weeks of age and were monitored for a […]. Mice were treated daily with vehicle, 10 mg/kg BT-63, or 20 mg/kg BT-63 by oral gavage. Once weekly blood samples were collected from the tail vein to be tested for glucose concentration by glucometer. Mice were euthanized after 12 weeks for collection of blood and organs for immunological testing.
Treatment administration. BT-63 was prepared within a 0.5% methylcellulose (12-15 cP) solution. Dosage used was 10 or 20 mg/kg delivered once daily. Mice were weighed on a weekly basis to update dosage formulation. Dosage was calculated based off mean body weights for each gender. Oral dosage was delivered by orogastric gavage of dosage in 0.2 mL volume.
Immunological analysis. Blood was collected by cardiac puncture into heparinized tube. Plasma was separated following centrifugation and assayed by Luminex for cytokine and hormones related to the development of T1D. Spleens were excised, crushed and filtered to provide a cellular suspension. Red blood cells were lysed. Cells were labeled with mixtures of extracellular (CD45, CD3, CD4, CD8, CD19, NK1.1, CD25, F4/80, CD11b, Gr1, CX3CR1, CD64) and intracellular (Tbet, BCL6, FOXP3, IFNγ, IL21, IL10) antibodies in a sequential live staining in 96-well plates in preparation for flow cytometry. Data was captured on a BD FACS Celesta and analyzed using FacsDiva.

Naïve CD4+ T cells = test: In vitro Treg differentiation of naive CD4+ T cells with BT-63; type: cell-based, mice
Protocol: Naïve CD4+ T cells can be isolated from the spleens of mice by magnetic sorting. The isolated cells can be incubated in anti-CD^3/anti-CD28 coated 96 well plates in Treg differentiation media. The Treg differentiation media can be Iscove's Modified Dulbecco's Medium (IMDM) media (ThermoFisher Scientific) supplemented with fetal bovine serum, HEPES, penicillin/streptomycin, L-glutamine, and differentiation agents. The Treg differentiation agents can be 10 nM all-trans-retinoic acid and 5 ng/mL TGF-β. Additional experiments can be conducted comparing differentiation in the Treg differentiation media with and without the addition of 10 ng/mL IL-2 or IL-12. Cells can be incubated with vehicle, 10 nM, or 100 nM BT-63 in differentiation media for 48 hours prior to assay. Prior to assay, cells can be stimulated with PMA and ionomycin for 6 hours.
Colonic lamina propria lymphocytes and cultured cells can be plated in 96 well plates (6×10^5 cells/well) and processed for immunophenotyping by flow cytometry as previously described. Briefly, cells can be incubated with fluorochrome conjugated antibodies to extracellular markers: CD45, CD4, CD3, CD25, CD8. Samples needing a secondary staining can be incubated with secondary antibodies, or streptavidin-conjugated fluorochrome. The samples can then be fixed and permeabilized. Cells can be incubated with antibodies to intracellular markers: Tbet, IFNγ, IL10, FOXP3, IL17, RORγT. Data can be acquired with a BD FACS Celesta flow cytometer and analyzed using FACS Diva software (BD Pharmingen).

[2] = 21 weeks of age, oral 10 or 20 mg/kg
[3] = spleen, 21 weeks of age, oral 10 or 20 mg/kg

O=C(CN1CCN(C(=O)c2cccc(-c3nc4ccccc4[nH]3)n2)CC1)c1ccccc1 [BT-63, 2-(4-(6-(1H-benzo[d]imidazol-2-yl)picolinoyl)piperazin-1-yl)-1-phenylethanone] was tested, and the pKd (LANCL2 protein) was 5.56, the “reduction of percentage of hyperglycemic mice” value ([1]; 20 mg/kg group compared to vehicle) was 50% and the HbA1c ([1]; 21 weeks of age, 10 mg/kg) was “reduced”. The HbA1c ([1]; 21 weeks of age, 20 mg/kg) was “reduced”, the “plasma MCP-1” value [1, 2] was “reduced” and the “plasma TNF” value [1, 2] was “reduced”. The “plasma levels of C-peptide” value [1, 2] was “increased”, the “plasma levels of insulin” value [1, 2] was “increased” and the blood glucose levels ([1]; NOD mice, oral daily, from 19 weeks of age through end) was “significantly lower”. For the same compound, the “CD4+IL10+ to CD4+IFNγ+ ratio” value [1, 3] was “increased”, the “PD1+ CD4+ T cells” value [1, 3] was “increasing” and the “T follicular helper (Tfh) cells (BCL6+IL21+)” value [1, 3] was “decreasing”. The “establishment of a CD25+ FOXP3+ subtype” value (Naïve CD4+ T cells; 100 nM, absence of IL-2) was “significantly increase”, the “CD25+ FOXP3+ cells” value (Naïve CD4+ T cells; IL-12-treated samples) was “significantly higher levels” and the “mixed CD25+ Tbet+ subtype” value (Naïve CD4+ T cells; Treg differentiation with or without IL-2) was “not be statistically altered”. The “CD25+ Tbet+ cells” value (Naïve CD4+ T cells; addition of IL-12) was “dose-dependent protection”, the STAT5a phosphorylation (Naïve CD4+ T cells; base Treg differentiation media, also with IL-2 or IL-12) was “phosphorylated in a greater ratio” and the FOXO1 phosphorylation (Naïve CD4+ T cells; base media and media containing IL-2, not IL-12) was “similarly be affected”. The “CD25+ FOXP3+ cells” value (Naïve CD4+ T cells; concentrations as low as 10 nM, presence of IL-2) was “significantly more”.
